From patent US20130323171A1, “RADIOLABELED BBN ANALOGS FOR PET IMAGING OF GASTRIN-RELEASING PEPTIDE RECEPTORS” (priority 2012, published 2013)
Square brackets hold non-standard residues; d marks the D form. Peptide text beside a SMILES is read from it. Sta = CC(C)C[C@H](N)[C@@H](O)CC(=O)O; 4Abz = Nc1ccc(C(=O)O)cc1

Tests used:
[1] = Mouse serum stability of the PET probes; format: in vitro ADME; conditions: 37° C., 1 h
Method: The in vitro stability of the PET probes was evaluated by incubation with mouse serum (1 mL) at 37° C. for 1 h. The solutions were filtered using a NanoSep 10 K centrifuge (Pall Corp.) to isolate low-molecular-weight radiocomplexes. The samples were analyzed by the radio-HPLC, and the percentages of intact PET probe were determined by quantifying the peaks corresponding with the intact probe and degradation products.
More than 95% of the probes remained intact after 1 h of incubation in mouse serum at 37° C.

[2] = molecular target: T1, GRPR (Homo sapiens, UniProt P30550); assay: Cell-binding assay: inhibition of ^125I-[Tyr4]BBN binding on PC3 cells; conditions: 0.06 nM radioligand, 37° C., 1 h, n=4, mean±SD
T1 construct: endogenous in cells; host or cells: PC3 cells
T1 sequence (P30550 whole entry): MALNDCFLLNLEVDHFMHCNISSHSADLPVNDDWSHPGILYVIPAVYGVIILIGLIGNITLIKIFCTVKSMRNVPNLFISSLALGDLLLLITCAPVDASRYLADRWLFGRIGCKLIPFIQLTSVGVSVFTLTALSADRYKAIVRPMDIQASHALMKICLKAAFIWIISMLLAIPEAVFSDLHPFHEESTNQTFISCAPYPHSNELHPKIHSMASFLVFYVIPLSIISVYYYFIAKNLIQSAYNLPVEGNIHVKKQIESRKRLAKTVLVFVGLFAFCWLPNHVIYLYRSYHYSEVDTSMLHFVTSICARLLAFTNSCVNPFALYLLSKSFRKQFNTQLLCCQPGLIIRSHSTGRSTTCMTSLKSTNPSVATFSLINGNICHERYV
Method: The cell-binding assay was performed similarly as previously reported (18, 35). Briefly, the PC3 cells (3×10^4) were incubated with 0.06 nM ^125I-[Tyr4]BBN and varying concentrations of peptides in the binding buffer (RPMI 1640+2 mg/mL BSA+5.2 mg/mL HEPES) at 37° C. for 1 h. The cell-bound, residual radioactivity after washing was determined by gamma counting. […] The experiments were performed in quadruplicate.
All of these peptides inhibited the GRPR-binding of ^125I-[Tyr4]BBN on the PC3 cells in a concentration-dependent manner.

Structure (SMILES)	stability in mouse serum [1]	IC50 [2]
CSCC[C@H](NC(=O)[C@H](CC(C)C)NC(=O)[C@H](Cc1c[nH]cn1)NC(=O)CNC(=O)[C@@H](NC(=O)[C@H](C)NC(=O)[C@H](Cc1c[nH]c2ccccc12)NC(=O)[C@H](CCC(N)=O)NC(=O)c1ccc(NC(=O)CNC(=O)CCC(C(=O)O)N2CCN(CC(=O)O)CCN(CC(=O)O)CC2)cc1)C(C)C)C(N)=O (single isomer, unassigned) [^64Cu-NODAGA-AMBA, metal not drawn]	exhibited degradation	–
CSCC[C@H](NC(=O)[C@H](CC(C)C)NC(=O)[C@H](Cc1c[nH]cn1)NC(=O)CNC(=O)[C@@H](NC(=O)[C@H](C)NC(=O)[C@H](Cc1c[nH]c2ccccc12)NC(=O)[C@H](CCC(N)=O)NC(=O)c1ccc(NC(=O)CN)cc1)C(C)C)C(N)=O [AMBA]	–	0.17 ± 0.07 nM
CC(C)C[C@H](NC(=O)C[C@H](O)[C@H](CC(C)C)NC(=O)[C@H](Cc1c[nH]cn1)NC(=O)CNC(=O)[C@@H](NC(=O)[C@H](C)NC(=O)[C@H](Cc1c[nH]c2ccccc12)NC(=O)[C@H](CCC(N)=O)NC(=O)[C@@H](Cc1ccccc1)NC(=O)c1ccc(NC(=O)CN)cc1)C(C)C)C(N)=O [RM1, G-4-aminobenzoyl-D-Phe-Gln-Trp-Ala-Val-Gly-His-Sta-Leu-NH2] (H-G[4Abz][dF]QWAVGH[Sta]L-NH2; N-terminus assumed)	–	0.25 ± 0.04 nM
